Common to all, as to assay: Competitive isoTOP-ABPP, cell lysates
Holding throughout (type): binding

In assay [1] the target is T1, IRF4 C194 (Q15306) (Homo sapiens, UniProt Q15306).
T1 sequence (Q15306 1-451): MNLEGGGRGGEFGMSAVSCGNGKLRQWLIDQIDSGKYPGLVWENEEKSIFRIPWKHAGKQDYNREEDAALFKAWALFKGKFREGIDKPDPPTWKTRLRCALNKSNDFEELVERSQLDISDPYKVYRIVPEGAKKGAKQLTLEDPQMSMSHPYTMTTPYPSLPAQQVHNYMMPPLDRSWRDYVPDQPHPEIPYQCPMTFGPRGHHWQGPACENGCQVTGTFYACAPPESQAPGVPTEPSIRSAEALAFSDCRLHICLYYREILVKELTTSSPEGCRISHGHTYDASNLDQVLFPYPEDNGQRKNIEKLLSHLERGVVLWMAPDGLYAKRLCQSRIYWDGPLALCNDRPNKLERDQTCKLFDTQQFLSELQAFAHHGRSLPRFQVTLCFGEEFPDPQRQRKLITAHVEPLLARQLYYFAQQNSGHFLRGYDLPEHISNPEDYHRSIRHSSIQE

Assay [2] addresses SMARCC2 C145 (Q8TAQ2) (Homo sapiens, UniProt Q8TAQ2). The note with it: for isoTOP-ABPP reactivity profile ratio, Q8TAQ2_C145 / isoTOP-ABPP reactivity ratio, Q8TAQ2_C145: 500 μm.
For assay [3], the target named is T2, ACAT1 C196 (P24752) (Homo sapiens, UniProt P24752).
T2 sequence (P24752 34-427): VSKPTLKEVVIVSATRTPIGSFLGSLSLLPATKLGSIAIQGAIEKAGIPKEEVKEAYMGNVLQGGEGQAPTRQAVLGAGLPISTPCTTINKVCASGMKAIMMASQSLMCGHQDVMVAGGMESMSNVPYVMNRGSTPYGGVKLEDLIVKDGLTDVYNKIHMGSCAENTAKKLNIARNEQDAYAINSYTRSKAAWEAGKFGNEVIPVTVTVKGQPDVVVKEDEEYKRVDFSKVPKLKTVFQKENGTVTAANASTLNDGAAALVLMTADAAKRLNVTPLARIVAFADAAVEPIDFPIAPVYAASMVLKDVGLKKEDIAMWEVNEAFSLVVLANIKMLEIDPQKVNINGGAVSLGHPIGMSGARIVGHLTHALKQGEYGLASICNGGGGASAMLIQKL
Particulars: for isoTOP-ABPP reactivity profile ratio, P24752_C196 / isoTOP-ABPP reactivity ratio, P24752_C196: 500 μm.

The target in assay [4] is T3, ACAT1 C119 (P24752) (Homo sapiens, UniProt P24752).
T3 sequence (P24752 34-427): T2 sequence (P24752 34-427)
The note with it: for isoTOP-ABPP reactivity profile ratio, P24752_C119 / isoTOP-ABPP reactivity ratio, P24752_C119: 500 μm.

Assay [5] has as its target T4, ACAT1 C126 (P24752) (Homo sapiens, UniProt P24752).
T4 sequence (P24752 34-427): T2 sequence (P24752 34-427)
The note with it: for isoTOP-ABPP reactivity profile ratio, P24752_C126 / isoTOP-ABPP reactivity ratio, P24752_C126: 500 μm.

In assay [6] the target is T5, ACAT1 C413 (P24752) (Homo sapiens, UniProt P24752).
T5 sequence (P24752 34-427): T2 sequence (P24752 34-427)
The note with it: for isoTOP-ABPP reactivity profile ratio, P24752_C413 / isoTOP-ABPP reactivity ratio, P24752_C413: 500 μm.

Assay [7] deals with CASP8 C360 (Q14790) (Homo sapiens, UniProt Q14790). Particulars: 500 μm, in-vitro_ramos.
Chain of CASP8 C360 (Q14790) (Q14790 whole entry): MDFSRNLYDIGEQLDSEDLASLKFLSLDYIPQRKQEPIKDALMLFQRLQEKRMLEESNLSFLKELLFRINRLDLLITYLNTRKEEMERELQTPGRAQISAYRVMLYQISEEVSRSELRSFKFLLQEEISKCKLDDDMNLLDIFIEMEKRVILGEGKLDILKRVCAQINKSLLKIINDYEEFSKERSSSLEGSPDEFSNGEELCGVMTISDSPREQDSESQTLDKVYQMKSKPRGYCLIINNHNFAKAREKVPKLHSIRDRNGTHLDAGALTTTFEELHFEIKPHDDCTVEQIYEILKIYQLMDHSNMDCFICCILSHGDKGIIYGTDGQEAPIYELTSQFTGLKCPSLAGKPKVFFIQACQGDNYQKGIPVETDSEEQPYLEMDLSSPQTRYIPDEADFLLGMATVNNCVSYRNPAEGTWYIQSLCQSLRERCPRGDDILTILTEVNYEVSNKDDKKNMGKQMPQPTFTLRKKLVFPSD

Chain of SMARCC2 C145 (Q8TAQ2) (Q8TAQ2 whole entry): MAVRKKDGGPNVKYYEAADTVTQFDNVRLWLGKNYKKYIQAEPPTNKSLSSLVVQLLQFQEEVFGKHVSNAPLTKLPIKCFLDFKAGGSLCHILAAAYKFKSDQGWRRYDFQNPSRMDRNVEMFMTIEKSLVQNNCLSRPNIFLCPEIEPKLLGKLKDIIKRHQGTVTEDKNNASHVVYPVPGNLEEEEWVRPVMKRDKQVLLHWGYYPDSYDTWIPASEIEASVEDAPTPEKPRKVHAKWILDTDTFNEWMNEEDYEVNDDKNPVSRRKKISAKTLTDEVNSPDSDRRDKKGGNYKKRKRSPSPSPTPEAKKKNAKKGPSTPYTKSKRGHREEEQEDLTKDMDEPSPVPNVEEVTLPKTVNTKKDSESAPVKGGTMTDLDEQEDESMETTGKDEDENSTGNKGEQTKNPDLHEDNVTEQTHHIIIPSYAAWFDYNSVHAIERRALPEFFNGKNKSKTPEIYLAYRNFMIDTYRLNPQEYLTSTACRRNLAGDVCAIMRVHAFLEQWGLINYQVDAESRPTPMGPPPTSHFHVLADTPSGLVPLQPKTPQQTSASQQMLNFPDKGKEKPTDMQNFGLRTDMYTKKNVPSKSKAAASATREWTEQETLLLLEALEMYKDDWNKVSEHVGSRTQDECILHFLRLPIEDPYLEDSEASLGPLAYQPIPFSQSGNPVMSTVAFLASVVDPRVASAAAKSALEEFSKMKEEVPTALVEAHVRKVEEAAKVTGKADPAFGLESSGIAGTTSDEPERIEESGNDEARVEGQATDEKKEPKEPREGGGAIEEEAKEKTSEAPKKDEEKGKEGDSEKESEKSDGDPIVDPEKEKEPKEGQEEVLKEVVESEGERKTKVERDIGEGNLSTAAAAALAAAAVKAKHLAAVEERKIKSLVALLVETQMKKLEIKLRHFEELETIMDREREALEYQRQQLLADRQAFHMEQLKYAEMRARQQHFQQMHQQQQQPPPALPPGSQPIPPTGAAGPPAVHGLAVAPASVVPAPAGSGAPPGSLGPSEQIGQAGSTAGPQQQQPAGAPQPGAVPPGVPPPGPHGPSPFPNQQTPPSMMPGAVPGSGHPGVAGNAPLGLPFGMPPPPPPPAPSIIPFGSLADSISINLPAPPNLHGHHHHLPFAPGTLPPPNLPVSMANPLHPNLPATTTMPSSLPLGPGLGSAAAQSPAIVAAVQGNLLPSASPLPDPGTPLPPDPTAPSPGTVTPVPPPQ

With `O=C(CCl)Nc1cccc2ncccc12` [compound 51], the “isoTOP-ABPP reactivity profile ratio, Q15306_C194” value in assay [1] (500 μm, in-vitro_ramos) was 1.4. Further, the “isoTOP-ABPP reactivity profile ratio, Q8TAQ2_C145” value in assay [2] (in-vitro_ramos) was 1.1. Also, the “isoTOP-ABPP reactivity profile ratio, P24752_C196” value in assay [3] (in-vitro_ramos_231) is recorded as 1.1. The “isoTOP-ABPP reactivity profile ratio, P24752_C119” value turned out to be 0.9 in assay [4] (in-vitro_ramos) and 0.8 in assay [4] (in-vitro_ramos_231). Moreover, the “isoTOP-ABPP reactivity profile ratio, P24752_C126” value in assay [5] (in-vitro_ramos) was determined as 1.2; in assay [5] (in-vitro_ramos_231), 1.0. For the same molecule, the “isoTOP-ABPP reactivity profile ratio, P24752_C413” value in assay [6] (in-vitro_ramos) and in assay [6] (in-vitro_ramos_231) was 1.0 throughout.

For `CC1CCc2ccccc2N1C(=O)CCl` (centres unmarked) [compound 45], the “isoTOP-ABPP reactivity profile ratio, P24752_C196” value in assay [3] (in-vitro_ramos_231) came out at 20.0. For the same molecule, the “isoTOP-ABPP reactivity profile ratio, P24752_C119” value in assay [4] (in-vitro_ramos_231) is reported as 12.4. In addition, the “isoTOP-ABPP reactivity profile ratio, P24752_C126” value in assay [5] (in-vitro_ramos_231) came to 20.0. The “isoTOP-ABPP reactivity profile ratio, P24752_C413” value in assay [6] (in-vitro_ramos_231) is 20.0.

As to `O=C(CCl)NC1C(O)OC(CO)C(O)C1O` (mixture of isomers) [compound 44], in assay [2] (in-vitro_ramos_231), the “isoTOP-ABPP reactivity profile ratio, Q8TAQ2_C145” value is 1.0. Also, the “isoTOP-ABPP reactivity profile ratio, P24752_C196” value in assay [3] (in-vitro_ramos_231) was 0.8. In addition, in assay [4] (in-vitro_ramos_231), the “isoTOP-ABPP reactivity profile ratio, P24752_C119” value is given as 0.8. The “isoTOP-ABPP reactivity profile ratio, P24752_C126” value in assay [5] (in-vitro_ramos_231) was found to be 0.8. In addition, in assay [6] (in-vitro_ramos_231), the “isoTOP-ABPP reactivity profile ratio, P24752_C413” value was determined as 0.8.

Take `O=C(CCl)N1CCc2cc(Br)ccc21` [compound 50]: the “isoTOP-ABPP reactivity profile ratio, Q8TAQ2_C145” value in assay [2] (in-vitro_ramos_231) stood at 2.8. Besides, the “isoTOP-ABPP reactivity profile ratio, P24752_C196” value in assay [3] (in-vitro_ramos_231) was determined as 3.9. The “isoTOP-ABPP reactivity profile ratio, P24752_C119” value in assay [4] (in-vitro_ramos_231) stood at 2.1. Further, the “isoTOP-ABPP reactivity profile ratio, P24752_C126” value in assay [5] (in-vitro_ramos_231) was found to be 20.0. Moreover, the “isoTOP-ABPP reactivity profile ratio, P24752_C413” value in assay [6] (in-vitro_ramos_231) was determined as 9.2.

In the case of `O=C(CCl)N1CCN(CC(=O)N2CCOCC2)CC1` [compound 29], the “isoTOP-ABPP ratio (reactivity profile), Q15306_C194” value in assay [1] (500 μm in-vitro ramos) worked out at 1.2. For the same molecule, in assay [2] (500 μm in-vitro ramos_231), the “isoTOP-ABPP ratio (reactivity profile), Q8TAQ2_C145” value is listed as 1.0. Further, the “isoTOP-ABPP ratio (reactivity profile), P24752_C196” value is 1.0 in assay [3] (500 μm in-vitro ramos) and 1.3 in assay [3] (500 μm in-vitro ramos_231). Further, the “isoTOP-ABPP ratio (reactivity profile), P24752_C119” value in assay [4] (500 μm in-vitro ramos) was 0.6; in assay [4] (500 μm in-vitro ramos_231), 1.3. The “isoTOP-ABPP ratio (reactivity profile), P24752_C126” value in assay [5] (500 μm in-vitro ramos) was 0.8; in assay [5] (500 μm in-vitro ramos_231), 1.1. In addition, the results for the “isoTOP-ABPP ratio (reactivity profile), P24752_C413” value in assay [6] (500 μm in-vitro ramos) and in assay [6] (500 μm in-vitro ramos_231) were 0.7 and 1.3, respectively.

As to `C=CC(=O)N1CCC(c2noc3ccc(F)cc23)CC1` [compound 37], the “isoTOP-ABPP reactivity ratio, Q15306_C194” value in assay [1] (500 μm, in-vitro_ramos) is 0.9. In assay [7], the “isoTOP-ABPP reactivity ratio, Q14790_C360” value is reported as 1.0. Besides, the “isoTOP-ABPP reactivity ratio, P24752_C196” value in assay [3] (in-vitro_ramos) is 1.0. Further, the “isoTOP-ABPP reactivity ratio, P24752_C119” value in assay [4] (in-vitro_ramos) came to 0.8. In assay [5] (in-vitro_ramos), the “isoTOP-ABPP reactivity ratio, P24752_C126” value came out at 0.9. For the same molecule, the “isoTOP-ABPP reactivity ratio, P24752_C413” value in assay [6] (in-vitro_ramos) was 0.9.

Consider `C=CC(=O)Nc1cc(C)c(Br)cc1C` [compound 40], for which the “isoTOP-ABPP reactivity ratio, Q15306_C194” value in assay [1] (500 μm, in-vitro_ramos) worked out at 1.1. The “isoTOP-ABPP reactivity ratio, Q8TAQ2_C145” value in assay [2] (in-vitro_ramos) came to 1.1; in assay [2] (in-vitro_ramos_231) it was 0.9. Besides, the “isoTOP-ABPP reactivity ratio, P24752_C196” value in assay [3] (in-vitro_ramos_231) turned out to be 0.8. Besides, the entries for the “isoTOP-ABPP reactivity ratio, P24752_C119” value in assay [4] (in-vitro_ramos) and in assay [4] (in-vitro_ramos_231) were 0.9 and 0.8, respectively. Also, the “isoTOP-ABPP reactivity ratio, P24752_C126” value in assay [5] (in-vitro_ramos_231) is on record as 0.9. The “isoTOP-ABPP reactivity ratio, P24752_C413” value in assay [6] (in-vitro_ramos_231) was 0.9.

Source of the values: US10670605B2, “Cysteine reactive probes and uses thereof” (The Scripps Research Institute, priority 2015, dated 2020).
